Data taken from patent US20160166572A1, “BENEFICIAL EFFECTS OF Lp-PLA2 INHIBITORS IN TREATMENT OF DIABETIC RETINOPATHY AND AGE-RELATED MACULAR DEGENERATION” (Rowan University, priority 2014, published 2016).

How the values were obtained:
[1] = test system: occludin; experiment: Occludin protein expression in BVECs of cerebral cortex (IHC, MATLAB), DMHC pigs; assay type: in vivo, pig; details: Darapladib 10 mg/kg/d orally, 24 weeks
Protocol: Briefly, after induction of diabetes by a single injection of Streptozotocin, animals were fed a high cholesterol diet. After a month of DMHC induction and acclimation, animals were randomly segregated to untreated DMHC and Darapladib-treated DMHC groups. Darapladib-treated pigs received 10 mg/kg/d of Darapladib orally. Three of the pigs were spared from DMHC induction and served as age-matched, non-DMHC normal controls. Twenty four weeks after acclimation, animals were euthanized and their brains and eyes were immediately removed. Brains were divided anteroposteriorly into anterior, middle and posterior regions. For each of these brain regions, 2-3 tissue blocks were generated for routine tissue fixation (10% formalin) or freezing and histological processing. The anterior cortical region comprised of anterior 2⁄3 of frontal lobe and anterior 1⁄3 of temporal lobe. The middle cortical region contained mid 1⁄3 of temporal lobe and anterior 1⁄2 of the parietal lobe. The posterior cortex included the posterior 1⁄2 of the parietal lobe, posterior 1⁄3 of the temporal lobe and the occipital lobe. Eyes were dissected longitudinally to sever the retina at the optic nerve. The sections were fixed in 10% formalin and embedded as flattened disc in paraffin. The tissue samples were processed using routine histology techniques. Standard Hematoxylin & Eosin (H&E) staining (FIG. 1) was carried out in retinal sections. […] Extravasated IgG was detected using biotinylated anti-swine IgG antibody (Vector laboratories, Inc., Catalogue # BA-9020; dilution 1:100). […] Slides were examined and photographed with a Nikon FXA microscope, and digital images were recorded using a Nikon DXM1200F digital camera and analyzed using MATLAB (MathWorks, Mass., USA) and NIS-elements software (Nikon, Melville, N.Y.). […] Claudin5 and occludin protein expression in pig cerebral cortex was evaluated semi-quantitatively using IHC by taking images at five random locations as described previously. Images were analyzed using MATLAB (MathWorks, Mass., USA). […]

[2] = test system: claudin5; experiment: Claudin5 gene expression in cerebral cortex (RT-PCR, beta-actin reference), DMHC pigs; assay type: in vivo, pig; details: Darapladib 10 mg/kg/d orally, 24 weeks, rank among treatment groups, FIG. 8A
Protocol: Briefly, after induction of diabetes by a single injection of Streptozotocin, animals were fed a high cholesterol diet. After a month of DMHC induction and acclimation, animals were randomly segregated to untreated DMHC and Darapladib-treated DMHC groups. Darapladib-treated pigs received 10 mg/kg/d of Darapladib orally. Three of the pigs were spared from DMHC induction and served as age-matched, non-DMHC normal controls. Twenty four weeks after acclimation, animals were euthanized and their brains and eyes were immediately removed. Brains were divided anteroposteriorly into anterior, middle and posterior regions. […]
Relative quantification of claudin5 and occludin gene expression was carried out using the reporter dye SYBR green and Applied Biosystems 7500 real time polymerase chain reaction (RT-PCR) system. […] Relative quantification of the claudin5 and occludin gene expression was conducted using beta actin (β-actin), a house keeping gene, as a standard. The amplification profiles of all samples were analyzed using Applied Biosystems software. […]
Changes in claudin 5 and occludin gene expression in response to DMHC and Darapladib treatment were assessed in the middle brain region only of the pig cerebral cortex by real-time polymerase chain reaction (RT-PCR) using beta-actin as a reference (FIG. 8).

Structure (SMILES): CCN(CC)CCN(Cc1ccc(-c2ccc(C(F)(F)F)cc2)cc1)C(=O)Cn1c(SCc2ccc(F)cc2)nc(=O)c2c1CCC2 [Darapladib]
- occludin protein expression, middle cortex ([1]; FIG. 7E): comparable levels of occludin expression
- occludin protein expression, anterior cortex ([1]; rank among treatment groups, FIG. 7D): highest level of occludin expression
- occludin protein expression, posterior cortex ([1]; rank among treatment groups, FIG. 7F): lowest expression
- claudin5 gene expression, middle brain region of cerebral cortex [2]: highest claudin5 and occludin levels
